This passage reports Ki results from patent publication US11299473B2, “Benzimidazole and indole compounds and uses thereof” (Incyte Corporation, priority 2018, dated 2022).

Each structure is given as a SMILES string. Where only a bound is given, the exact number is not on record here.

Sequence of active HPK1 (SignalChem M23-11G) (Q92918 1-346 limits assumed): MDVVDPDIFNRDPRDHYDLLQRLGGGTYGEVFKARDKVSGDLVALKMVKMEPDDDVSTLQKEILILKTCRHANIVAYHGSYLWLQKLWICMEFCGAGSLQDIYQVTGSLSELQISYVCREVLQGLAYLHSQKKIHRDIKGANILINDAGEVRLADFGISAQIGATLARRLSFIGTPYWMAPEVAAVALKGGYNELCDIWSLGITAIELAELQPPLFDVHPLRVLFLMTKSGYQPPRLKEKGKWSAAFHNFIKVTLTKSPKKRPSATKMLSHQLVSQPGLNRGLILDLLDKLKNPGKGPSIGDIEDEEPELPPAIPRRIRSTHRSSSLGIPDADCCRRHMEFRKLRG

The test deals with active HPK1 (SignalChem M23-11G) (Homo sapiens (Human), UniProt Q92918). In words: HPK1 Kinase Binding Assay. The note with it: LanthaScreen tracer 222 / Eu-Anti GST antibody, one hour incubation at 25° C. The protocol:
A stock solution of 1 mM test compound was prepared in DMSO. The compound plate was prepared by 3-fold and 11-point serial dilutions. 0.1 μL of the compound in DMSO was transferred from the compound plate to the white 384 well polystyrene plates. The assay buffer contained 50 mM HEPES, pH 7.5, 0.01% Tween-20, 5 mM MgCl2, 0.01% BSA, and 5 mM DTT. 5 μL of 4 nM active HPK1 (SignalChem M23-11G) prepared in the buffer was added to the plate. The enzyme concentration given was based on the given stock concentration reported by the vender. 5 μl of 18 nM tracer 222 (ThermoFisher PV6121) and 4 nM LanthaScreen Eu-Anti GST antibody (ThermoFisher PV5595) were added. After one hour incubation at 25° C., the plates were read on a PHERAstar FS plate reader (BMG Labtech). Ki values were determined.
A general note: Time-resolved FRET reads energy transfer from a long-lived donor to a nearby acceptor.
For orientation: Ki means the equilibrium dissociation constant of an inhibitor or competing ligand from its target. A lower Ki goes with a stronger hold on the target. The compound `COc1cccc(F)c1-c1nccc(C(=O)Nc2ccc3c(ccn3Cc3ccncc3)c2N2C[C@@H]3C[C@H]2CN3)n1` [Example 39, N-(4-((1S,4S)-2,5-Diazabicyclo[2.2.1]heptan-2-yl)-1-(pyridin-4-ylmethyl)-1H-indol-5-yl)-2-(2-fluoro-6-methoxyphenyl)pyrimidine-4-carboxamide] came in with a Ki of at most 100 nM.

On to `COc1cccc(F)c1-c1nccc(C(=O)Nc2ccc3c(nc(C)n3C)c2N2C[C@H]3C[C@@H]2CN3)n1` [Example 16, N-(4-((1R,4R)-2,5-Diazabicyclo[2.2.1]heptan-2-yl)-1,2-dimethyl-1H-benzo[d]imidazol-5-yl)-2-(2-fluoro-6-methoxyphenyl)pyrimidine-4-carboxamide], for which the inhibition constant (Ki) is at most 100 nM. The same measure for `COc1cccc(F)c1-c1nccc(C(=O)Nc2ccc3c(nc(-c4ccncc4F)n3C)c2N2C[C@@H]3C[C@H]2CN3)n1` [Example 10, N-(4-((1S,4S)-2,5-Diazabicyclo[2.2.1]heptan-2-yl)-2-(3-fluoropyridin-4-yl)-1-methyl-1H-benzo[d]imidazol-5-yl)-2-(2-fluoro-6-methoxyphenyl)pyrimidine-4-carboxamide]: at most 100 nM; for `COc1cccc(F)c1-c1nccc(C(=O)Nc2ccc3c(ccn3C)c2N2C[C@@H]3C[C@H]2CN3)n1` [Example 38, N-(4-((1S,4S)-2,5-Diazabicyclo[2.2.1]heptan-2-yl)-1-methyl-1H-indol-5-yl)-2-(2-fluoro-6-methoxyphenyl)pyrimidine-4-carboxamide]: at most 100 nM; for `COc1cccc(F)c1-c1nccc(C(=O)Nc2ccc3c(nc(-c4ccncc4F)n3C)c2N2CCOC[C@@H]2CN)n1` [Example 8, (S)—N-(4-(3-(Aminomethyl)morpholino)-2-(3-fluoropyridin-4-yl)-1-methyl-1H-benzo[d]imidazol-5-yl)-2-(2-fluoro-6-methoxyphenyl)pyrimidine-4-carboxamide]: at most 100 nM.

Turning to `Cn1c(-c2ncccc2F)nc2c(N3C[C@H](N)C[C@H]3CO)c(NC(=O)c3ccnc(-c4c(F)cccc4F)n3)ccc21` [Example 2, N-(4-((2S,4R)-4-Amino-2-(hydroxymethyl)pyrrolidin-1-yl)-2-(3-fluoropyridin-2-yl)-1-methyl-1H-benzo[d]imidazol-5-yl)-2-(2,6-difluorophenyl)pyrimidine-4-carboxamide], the Ki is at most 100 nM. The same measure for `Cn1c(-c2ccccc2C#N)nc2c(N3C[C@H](N)C[C@H]3CO)c(NC(=O)c3ccnc(-c4c(F)cccc4F)n3)ccc21` [Example 4, N-(4-((2S,4R)-4-Amino-2-(hydroxymethyl)pyrrolidin-1-yl)-2-(2-cyanophenyl)-1-methyl-1H-benzo[d]imidazol-5-yl)-2-(2,6-difluorophenyl)pyrimidine-4-carboxamide]: at most 100 nM. As for `COc1ccc(-n2ccc3c(N4C[C@@H](N)C[C@H]4CO)c(NC(=O)c4ccnc(-c5c(F)cccc5OC)n4)ccc32)c(F)c1` [Example 45, N-(4-((2S,4S)-4-Amino-2-(hydroxymethyl)pyrrolidin-1-yl)-1-(2-fluoro-4-methoxyphenyl)-1H-indol-5-yl)-2-(2-fluoro-6-methoxyphenyl)pyrimidine-4-carboxamide], the figure is at most 100 nM. As for `COCc1nc2c(N3CCC[C@H]3CN)c(NC(=O)c3ccnc(-c4c(F)cccc4OC)n3)ccc2n1C` [Example 25, (S)—N-(4-(2-(Aminomethyl)pyrrolidin-1-yl)-2-(methoxymethyl)-1-methyl-1H-benzo[d]imidazol-5-yl)-2-(2-fluoro-6-methoxyphenyl)pyrimidine-4-carboxamide], the figure is at most 100 nM; as for `COc1cccc(F)c1-c1nc(C(=O)Nc2ccc3c(nc(C)n3C)c2N2CCC[C@H]2CN)ccc1F` [Example 34, N-(4-((S)-2-(Aminomethyl)pyrrolidin-1-yl)-1,2-dimethyl-1H-benzo[d]imidazol-5-yl)-5-fluoro-6-(2-fluoro-6-methoxyphenyl)picolinamide], at most 100 nM. Regarding `Cn1c(-c2ccncc2F)nc2c(N3C[C@H](N)C[C@H]3CO)c(NC(=O)c3ccnc(-c4c(F)cccc4F)n3)ccc21` [Example 7, N-(4-((2S,4R)-4-Amino-2-(hydroxymethyl)pyrrolidin-1-yl)-2-(3-fluoropyridin-4-yl)-1-methyl-1H-benzo[d]imidazol-5-yl)-2-(2,6-difluorophenyl)pyrimidine-4-carboxamide], the Ki was at most 100 nM.

Compound `COc1cccc(F)c1-c1nccc(C(=O)Nc2ccc3c(nc(C)n3CC(C)(C)OC)c2N2CCC[C@H]2CN)n1` [Example 23, (S)—N-(4-(2-(Aminomethyl)pyrrolidin-1-yl)-1-(2-methoxy-2-methylpropyl)-2-methyl-1H-benzo[d]imidazol-5-yl)-2-(2-fluoro-6-methoxyphenyl)pyrimidine-4-carboxamide] yielded a Ki of at most 100 nM. As for `COc1cccc(F)c1-c1nccc(C(=O)Nc2ccc3c(nc(-c4ncccc4F)n3C)c2N2C[C@H](N)C[C@H]2CO)n1` [Example 1, N-(4-((2S,4R)-4-Amino-2-(hydroxymethyl)pyrrolidin-1-yl)-2-(3-fluoropyridin-2-yl)-1-methyl-1H-benzo[d]imidazol-5-yl)-2-(2-fluoro-6-methoxyphenyl)pyrimidine-4-carboxamide], the figure is at most 100 nM; as for `Cc1cccc(F)c1-c1nccc(C(=O)Nc2ccc3c(nc(C)n3C)c2N2CCC[C@H]2CN)n1` [Example 33, (S)—N-(4-(2-(Aminomethyl)pyrrolidin-1-yl)-1,2-dimethyl-1H-benzo[d]imidazol-5-yl)-2-(2-fluoro-6-methylphenyl)pyrimidine-4-carboxamide], at most 100 nM. As for `COc1cccc(F)c1-c1nccc(C(=O)Nc2ccc3c(nc(C4CCOCC4)n3C)c2N2CCC[C@H]2CN)n1` [Example 20, (S)—N-(4-(2-(Aminomethyl)pyrrolidin-1-yl)-1-methyl-2-(tetrahydro-2H-pyran-4-yl)-1H-benzo[d]imidazol-5-yl)-2-(2-fluoro-6-methoxyphenyl)pyrimidine-4-carboxamide], the figure is at most 100 nM; as for `COc1cccc(F)c1-c1nccc(C(=O)Nc2ccc3c(ccn3Cc3cnc(C)s3)c2N2C[C@@H]3C[C@H]2CN3)n1` [Example 42, N-(4-((1S,4S)-2,5-Diazabicyclo[2.2.1]heptan-2-yl)-1-((2-methylthiazol-5-yl)methyl)-1H-indol-5-yl)-2-(2-fluoro-6-methoxyphenyl)pyrimidine-4-carboxamide], at most 100 nM; as for `COc1cccc(F)c1-c1nccc(C(=O)Nc2ccc3c(nc(C)n3[C@H]3CCOC3)c2N2CCC[C@H]2CN)n1` [Example 24, N-(4-((S)-2-(Aminomethyl)pyrrolidin-1-yl)-2-methyl-1-((S)-tetrahydrofuran-3-yl)-1H-benzo[d]imidazol-5-yl)-2-(2-fluoro-6-methoxyphenyl)pyrimidine-4-carboxamide], at most 100 nM. The same measure for `COc1cccc(F)c1-c1nccc(C(=O)Nc2ccc3c(nc(C)n3Cc3ccncc3)c2N2CC[C@H](N)C2)n1` [Example 29, (S)—N-(4-(3-Aminopyrrolidin-1-yl)-2-methyl-1-(pyridin-4-ylmethyl)-1H-benzo[d]imidazol-5-yl)-2-(2-fluoro-6-methoxyphenyl)pyrimidine-4-carboxamide]: at most 100 nM.
